The record followed here is patent US20250304559A1, “Ether-Linked Antiviral Compounds” (Pfizer Inc., priority 2021, published 2025).

Read-outs that look alike come from different tables or passages of the source. Where only a bound is given, the exact number is not on record here.

The target of one assay is T1, SARS-CoV-2 3CL protease (Severe acute respiratory syndrome coronavirus 2, UniProt P0DTD1).
T1 construct: measures the activity of full-length SARS-CoV-2 3CL protease
The assay can be described thus: SARS-CoV-2 Coronavirus 3C Protease FRET Assay. Format: biochemical. The note with it: Morrison equation fit, 15 nM enzyme, 25 μM peptide substrate.

The subject of assay [1] is SARS-CoV-2 (USA_WA1/2020). The assay can be described thus: Antiviral Activity from SARS-CoV-2 Infection (cytopathic effect, Cell Titer-Glo). Format: cell-based. To be noted: tested alone or with P-gp inhibitor CP-100356 2 μM (table does not say which).
[2] abbreviates: Examples 14-78 and 114 (second head of Table 2), read-out: Geometric Mean Ki (nM) IC50.
The mark [3] stands for this setting: Severe acute respiratory syndrome coronavirus 2, Vero C1008, 72 h, VeroE6 cells enriched for hACE2, MOI 0.002, 3-day incubation, read-out: Geometric Mean EC50.
Where [4] appears, read: Examples 1-13, 60 minutes at 23° C., read-out: Geometric Mean Ki.

As for `CC(C)(C)[C@H](NS(=O)(=O)C(F)(F)F)C(=O)N1C[C@H]2[C@@H]([C@H]1C(=O)N[C@@H](C[C@@H]1CCNC1=O)C(=O)COc1ccc(F)cc1)C2(C)C` [Example 29, (1R,2S,5S)-N-{(2S)-4-(4-fluorophenoxy)-3-oxo-1-[(3S)-2-oxopyrrolidin-3-yl]butan-2-yl}-6,6-dimethyl-3-[3-methyl-N-(trifluoromethanesulfonyl)-L-valyl]-3-azabicyclo[3.1.0]hexane-2-carboxamide], the Ki (in general, the equilibrium dissociation constant of an inhibitor or competing ligand from its target) on SARS-CoV-2 3CL protease (setting [2]) was 4.69 nM. For the same compound, in assay [1] (Severe acute respiratory syndrome coronavirus 2, Vero C1008, 72 h, read-out: Geometric Mean EC50 (nM), VeroE6 cells enriched for hACE2, MOI 0.002, 3-day incubation), the EC50 (as a rule, the concentration giving half of the maximal effect) was found to be 57 nM.

For `CC(C)C[C@@H](C(=O)N1C[C@H]2[C@@H]([C@H]1C(=O)N[C@@H](C[C@@H]1CCNC1=O)C(=O)COc1cc(C(F)(F)F)nn1C)C2(C)C)N(C)C(C)C` (single isomer, unassigned) [Example 65, (1R,2S,5S)-6,6-dimethyl-3-[N-methyl-N-(propan-2-yl)-L-leucyl]-N-{(2R*)-4-{[1-methyl-3-(trifluoromethyl)-1H-pyrazol-5-yl]oxy}-3-oxo-1-[(3S)-2-oxopyrrolidin-3-yl]butan-2-yl}-3-azabicyclo[3.1.0]hexane-2-carboxamide, DIAST-1], the Ki at SARS-CoV-2 3CL protease (setting [2]) amounted to 96.7 nM. For the same compound, the EC50 in assay [1] (setting [3]) stood at 133 nM.

As for `CC(C)(C)[C@H](NS(=O)(=O)C(F)(F)F)C(=O)N1C[C@H]2[C@@H]([C@H]1C(=O)N[C@@H](C[C@@H]1CCNC1=O)C(=O)COc1cccc(Cl)c1)C2(C)C` [Example 28, (1R,2S,5S)-N-{(2S)-4-(3-chlorophenoxy)-3-oxo-1-[(3S)-2-oxopyrrolidin-3-yl]butan-2-yl}-6,6-dimethyl-3-[3-methyl-N-(trifluoromethanesulfonyl)-L-valyl]-3-azabicyclo[3.1.0]hexane-2-carboxamide], the Ki at SARS-CoV-2 3CL protease (setting [2]) is 2.15 nM. For the same compound, the EC50 in assay [1] (setting [3]) was 16.8 nM.

`CC(C)[C@H](NC(=O)C(F)(F)F)C(=O)N1C[C@H]2[C@@H]([C@H]1C(=O)N[C@@H](C[C@@H]1CCNC1=O)C(=O)COc1nnc(C(F)(F)F)n1C)C2(C)C` [Example 74, (1R,2S,5S)-6,6-dimethyl-N-{(2S)-4-{[4-methyl-5-(trifluoromethyl)-4H-1,2,4-triazol-3-yl]oxy}-3-oxo-1-[(3S)-2-oxopyrrolidin-3-yl]butan-2-yl}-3-[N-(trifluoroacetyl)-L-valyl]-3-azabicyclo[3.1.0]hexane-2-carboxamide]: at SARS-CoV-2 3CL protease (setting [2]), the Ki turned out to be 919 nM. In assay [1] (setting [3]), the EC50 was 25700 nM.

As for `COC(=O)N[C@H](C(=O)N1C[C@H]2[C@@H]([C@H]1C(=O)N[C@@H](C[C@@H]1CCNC1=O)C(=O)COc1cccc(C(F)(F)F)c1)C2(C)C)C(C)(C)C` [Example 17, methyl {(2S)-1-[(1R,2S,5S)-6,6-dimethyl-2-({(2S)-3-oxo-1-[(3S)-2-oxopyrrolidin-3-yl]-4-[3-(trifluoromethyl)phenoxy]butan-2-yl}carbamoyl)-3-azabicyclo[3.1.0]hexan-3-yl]-3,3-dimethyl-1-oxobutan-2-yl}carbamate], the Ki at SARS-CoV-2 3CL protease (setting [2]) is less than 0.443 nM. Besides, the EC50 in assay [1] (setting [3]) worked out at 13.3 nM.

Consider `CC(C)[C@H](NS(C)(=O)=O)C(=O)N1CCC2(CC2)C[C@H]1C(=O)N[C@@H](C[C@@H]1CCNC1=O)C(=O)COc1ccc(F)cc1F` (single isomer, unassigned) [Example 59, (5R*)-N-{(2S)-4-(2,4-difluorophenoxy)-3-oxo-1-[(3S)-2-oxopyrrolidin-3-yl]butan-2-yl}-6-[N-(methanesulfonyl)-L-valyl]-6-azaspiro[2.5]octane-5-carboxamide, DIAST-1], for which the Ki on SARS-CoV-2 3CL protease (setting [2]) amounted to 9.27 nM. In addition, in assay [1] (VeroE6 cells enriched for hACE2, MOI 0.002, 3-day incubation, read-out: Geometric Mean EC50), the EC50 worked out at 299 nM.

As to `CC(C)(C)[C@H](NS(=O)(=O)C(F)(F)F)C(=O)N1C[C@H]2[C@@H]([C@H]1C(=O)N[C@@H](C[C@@H]1CCNC1=O)C(=O)COc1ccc(F)cc1F)C2(C)C` [Example 3, (1R,2S,5S)-N-{(2S)-4-(2,4-difluorophenoxy)-3-oxo-1-[(3S)-2-oxopyrrolidin-3-yl]butan-2-yl}-6,6-dimethyl-3-{3-methyl-N-[(trifluoromethyl)sulfonyl]-L-valyl}-3-azabicyclo[3.1.0]hexane-2-carboxamide], at SARS-CoV-2 3CL protease (setting [4]), the Ki came to 3.5 nM. Moreover, in assay [1] (setting [3]), the EC50 stood at 207 nM.

Regarding `CC(C)(C)[C@H](NS(=O)(=O)C(F)(F)F)C(=O)N1C[C@H]2[C@@H]([C@H]1C(=O)N[C@@H](C[C@@H]1CCNC1=O)C(=O)COc1cccc(C(F)(F)F)c1)C2(C)C` [Example 10, (1R,2S,5S)-6,6-dimethyl-3-{3-methyl-N-[(trifluoromethyl)sulfonyl]-L-valyl}-N-{(2S)-3-oxo-1-[(3S)-2-oxopyrrolidin-3-yl]-4-[3-(trifluoromethyl)phenoxy]butan-2-yl}-3-azabicyclo[3.1.0]hexane-2-carboxamide], at SARS-CoV-2 3CL protease (setting [4]), the Ki is 8.34 nM. In addition, the EC50 in assay [1] (setting [3]) stood at 167 nM.

Regarding `CC(C)[C@H](NC(=O)C(F)(F)F)C(=O)N1C[C@H]2[C@@H]([C@H]1C(=O)N[C@@H](C[C@@H]1CCNC1=O)C(=O)COc1nc(C(F)(F)F)nn1C)C2(C)C` [Example 55, (1R,2S,5S)-6,6-dimethyl-N-{(2S)-4-{[1-methyl-3-(trifluoromethyl)-1H-1,2,4-triazol-5-yl]oxy}-3-oxo-1-[(3S)-2-oxopyrrolidin-3-yl]butan-2-yl}-3-[N-(trifluoroacetyl)-L-valyl]-3-azabicyclo[3.1.0]hexane-2-carboxamide], the Ki at SARS-CoV-2 3CL protease (setting [2]) stood at 11.6 nM. Also, the EC50 in assay [1] (setting [3]) came to 642 nM.

Turning to `CCC(C(NC(=O)C(F)(F)F)C(=O)N1C[C@H]2[C@@H]([C@H]1C(=O)N[C@@H](C[C@@H]1CCNC1=O)C(=O)COc1ccc(F)cc1F)C2(C)C)C(F)(F)F` (stereo in doubt) [Example 32, (1R,2S,5S)-N-{(2S)-4-(2,4-difluorophenoxy)-3-oxo-1-[(3S)-2-oxopyrrolidin-3-yl]butan-2-yl}-6,6-dimethyl-3-[3′,3′,3′-trifluoro-N-(trifluoroacetyl)-L-isoleucyl]-3-azabicyclo[3.1.0]hexane-2-carboxamide], the Ki on SARS-CoV-2 3CL protease (setting [2]) is 2.42 nM. In assay [1] (setting [3]), the EC50 turned out to be 98.9 nM.

Take `CC(C)[C@H](NC(=O)C(F)(F)F)C(=O)N1C[C@H]2[C@@H]([C@H]1C(=O)N[C@@H](C[C@@H]1CCNC1=O)C(=O)COc1ccc(F)cc1)C2(C)C` [Example 52, (1R,2S,5S)-N-{(2S)-4-(4-fluorophenoxy)-3-oxo-1-[(3S)-2-oxopyrrolidin-3-yl]butan-2-yl}-6,6-dimethyl-3-[N-(trifluoroacetyl)-L-valyl]-3-azabicyclo[3.1.0]hexane-2-carboxamide]: the Ki on SARS-CoV-2 3CL protease (setting [2]) turned out to be 10.5 nM. Also, in assay [1] (setting [3]), the EC50 was found to be 73.3 nM.

As to `CCC([C@H](NS(=O)(=O)C(F)(F)F)C(=O)N1C[C@H]2[C@@H]([C@H]1C(=O)N[C@@H](C[C@@H]1CCNC1=O)C(=O)COc1ccc(F)cc1F)C2(C)C)C(F)(F)F` (stereo in doubt) [Example 63, (1R,2S,5S)-N-{(2S)-4-(2,4-difluorophenoxy)-3-oxo-1-[(3S)-2-oxopyrrolidin-3-yl]butan-2-yl}-6,6-dimethyl-3-[3′,3′,3′-trifluoro-N-(trifluoromethanesulfonyl)-L-isoleucyl]-3-azabicyclo[3.1.0]hexane-2-carboxamide], on SARS-CoV-2 3CL protease (setting [2]), the Ki turned out to be 54.2 nM. Also, in assay [1] (setting [3]), the EC50 was 5550 nM.

On to `CC(C)[C@H](NS(C)(=O)=O)C(=O)N1CCC(C)(C)CC1C(=O)N[C@@H](C[C@@H]1CCNC1=O)C(=O)COc1ccc(F)cc1F` (single isomer, unassigned) [Example 60, (2R*)-N-{(2S)-4-(2,4-difluorophenoxy)-3-oxo-1-[(3S)-2-oxopyrrolidin-3-yl]butan-2-yl}-1-[N-(methanesulfonyl)-L-valyl]-4,4-dimethylpiperidine-2-carboxamide], for which, at SARS-CoV-2 3CL protease (setting [2]), the Ki was 21.8 nM. In assay [1] (setting [3]), the EC50 amounted to 456 nM.

In the case of `Cn1nc(C(F)(F)F)cc1OCC(=O)[C@H](C[C@@H]1CCNC1=O)NC(=O)[C@@H]1[C@@H]2[C@H](CN1C(=O)[C@@H](NS(C)(=O)=O)C(C)(C)C)C2(C)C` [Example 7, (1R,2S,5S)-6,6-dimethyl-3-[3-methyl-N-(methylsulfonyl)-L-valyl]-N-{(2S)-4-{[1-methyl-3-(trifluoromethyl)-1H-pyrazol-5-yl]oxy}-3-oxo-1-[(3S)-2-oxopyrrolidin-3-yl]butan-2-yl}-3-azabicyclo[3.1.0]hexane-2-carboxamide], the Ki at SARS-CoV-2 3CL protease (setting [4]) was 2.88 nM. Besides, the EC50 in assay [1] (setting [3]) was 1260 nM.

Regarding `Cc1ccc2nc(OCC(=O)[C@H](C[C@@H]3CCNC3=O)NC(=O)[C@@H]3[C@@H]4[C@H](CN3C(=O)[C@@H](NC(=O)C(F)(F)F)C(C)C)C4(C)C)oc2c1` [Example 72, (1R,2S,5S)-6,6-dimethyl-N-{(2S)-4-[(6-methyl-1,3-benzoxazol-2-yl)oxy]-3-oxo-1-[(3S)-2-oxopyrrolidin-3-yl]butan-2-yl}-3-[N-(trifluoroacetyl)-L-valyl]-3-azabicyclo[3.1.0]hexane-2-carboxamide], on SARS-CoV-2 3CL protease (setting [2]), the Ki stood at 505 nM. Also, the EC50 in assay [1] (setting [3]) is 19000 nM.

As to `CC(C)[C@H](NC(=O)C(F)(F)F)C(=O)N1C[C@H]2[C@@H]([C@H]1C(=O)N[C@@H](C[C@@H]1CCNC1=O)C(=O)COc1cc(F)ccc1F)C2(C)C` [Example 53, (1R,2S,5S)-N-{(2S)-4-(2,5-difluorophenoxy)-3-oxo-1-[(3S)-2-oxopyrrolidin-3-yl]butan-2-yl}-6,6-dimethyl-3-[N-(trifluoroacetyl)-L-valyl]-3-azabicyclo[3.1.0]hexane-2-carboxamide], on SARS-CoV-2 3CL protease (setting [2]), the Ki was found to be 12 nM. For the same compound, the EC50 in assay [1] (setting [3]) stood at 72.8 nM.
